# Columns and labels:
# Assay in all cases: CEREP radioligand binding
# NK2 (h) = biological target: T1, NK2 (h) (Homo sapiens, UniProt P21452); conditions: % of control specific binding
# T1 construct: purchased CEREP
# Method: (§1) SB-334867 was evaluated in a selectivity screen performed at CEREP (Paris, France). The screen consisted of binding assays on a panel of 79 target receptors. The specific binding (SB) of a radioligand to each target receptor was defined as the difference between the total binding and the nonspecific binding determined in the presence of a cold competitor in excess. […] Details on the CEREP screen are available from www.cerep.fr.
# 5-HT transporter (h) = biological target: T2, 5-HT transporter (h) (Homo sapiens, UniProt P31645); conditions: % of control specific binding
# T2 construct: purchased CEREP
# T2 sequence (P31645 whole entry): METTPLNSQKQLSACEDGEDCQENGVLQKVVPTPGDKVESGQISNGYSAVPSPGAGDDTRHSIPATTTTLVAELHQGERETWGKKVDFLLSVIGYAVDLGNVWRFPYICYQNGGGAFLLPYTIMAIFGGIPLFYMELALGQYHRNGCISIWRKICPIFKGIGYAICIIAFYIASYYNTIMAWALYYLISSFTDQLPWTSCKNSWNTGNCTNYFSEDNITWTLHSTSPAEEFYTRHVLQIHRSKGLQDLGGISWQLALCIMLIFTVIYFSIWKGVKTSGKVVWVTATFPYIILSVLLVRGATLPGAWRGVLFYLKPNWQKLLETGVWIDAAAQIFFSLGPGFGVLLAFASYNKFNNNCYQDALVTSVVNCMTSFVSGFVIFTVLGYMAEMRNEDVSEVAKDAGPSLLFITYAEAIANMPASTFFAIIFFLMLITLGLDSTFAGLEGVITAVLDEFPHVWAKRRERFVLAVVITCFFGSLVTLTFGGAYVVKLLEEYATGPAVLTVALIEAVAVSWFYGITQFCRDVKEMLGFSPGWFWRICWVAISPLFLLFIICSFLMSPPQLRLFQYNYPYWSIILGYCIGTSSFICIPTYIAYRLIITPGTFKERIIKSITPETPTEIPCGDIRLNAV
# Method: as §1
# AT1 (h) = biological target: T3, AT1 (h) (Homo sapiens, UniProt P30556); conditions: % of control specific binding
# T3 construct: purchased CEREP
# T3 sequence (P30556 whole entry): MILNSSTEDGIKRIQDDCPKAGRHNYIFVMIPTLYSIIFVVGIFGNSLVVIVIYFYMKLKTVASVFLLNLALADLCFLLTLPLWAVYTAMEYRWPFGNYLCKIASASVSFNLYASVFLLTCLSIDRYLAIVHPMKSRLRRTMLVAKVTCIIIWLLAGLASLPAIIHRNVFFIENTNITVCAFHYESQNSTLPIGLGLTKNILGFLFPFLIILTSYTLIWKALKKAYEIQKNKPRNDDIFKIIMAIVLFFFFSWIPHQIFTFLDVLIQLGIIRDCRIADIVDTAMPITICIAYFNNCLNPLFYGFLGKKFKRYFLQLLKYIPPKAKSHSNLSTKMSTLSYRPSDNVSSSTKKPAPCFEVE
# Method: as §1
# 5-HT1A (h) = biological target: T4, 5-HT1A (h) (Homo sapiens, UniProt P08908); conditions: % of control specific binding
# T4 construct: purchased CEREP
# T4 sequence (P08908 whole entry): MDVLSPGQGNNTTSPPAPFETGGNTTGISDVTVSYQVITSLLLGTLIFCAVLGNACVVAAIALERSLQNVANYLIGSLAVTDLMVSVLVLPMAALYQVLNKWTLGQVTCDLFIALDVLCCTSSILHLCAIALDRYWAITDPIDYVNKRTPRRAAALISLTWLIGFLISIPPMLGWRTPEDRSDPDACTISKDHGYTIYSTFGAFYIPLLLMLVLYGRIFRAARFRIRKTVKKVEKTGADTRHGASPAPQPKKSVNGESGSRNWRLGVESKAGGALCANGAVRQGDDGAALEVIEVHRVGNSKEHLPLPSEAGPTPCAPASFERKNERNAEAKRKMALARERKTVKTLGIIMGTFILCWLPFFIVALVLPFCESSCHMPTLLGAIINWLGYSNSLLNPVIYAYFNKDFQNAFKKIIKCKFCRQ
# Method: as §1
# NK1 (h) = biological target: T5, NK1 (h) (Homo sapiens, UniProt P25103); conditions: % of control specific binding
# T5 construct: purchased CEREP
# Method: as §1
# [1] = test system: Ca2+ channel (L, verapamil site) (phenylalkylamines); conditions: % of control specific binding
# Method: as §1
# TRH1 (h) = biological target: T6, TRH1 (h) (Homo sapiens, UniProt P34981); conditions: % of control specific binding
# T6 construct: purchased CEREP
# Method: as §1
# CB1 (h) = biological target: T7, CB1 (h) (Homo sapiens, UniProt P21554); conditions: % of control specific binding
# T7 construct: purchased CEREP
# T7 sequence (P21554 whole entry): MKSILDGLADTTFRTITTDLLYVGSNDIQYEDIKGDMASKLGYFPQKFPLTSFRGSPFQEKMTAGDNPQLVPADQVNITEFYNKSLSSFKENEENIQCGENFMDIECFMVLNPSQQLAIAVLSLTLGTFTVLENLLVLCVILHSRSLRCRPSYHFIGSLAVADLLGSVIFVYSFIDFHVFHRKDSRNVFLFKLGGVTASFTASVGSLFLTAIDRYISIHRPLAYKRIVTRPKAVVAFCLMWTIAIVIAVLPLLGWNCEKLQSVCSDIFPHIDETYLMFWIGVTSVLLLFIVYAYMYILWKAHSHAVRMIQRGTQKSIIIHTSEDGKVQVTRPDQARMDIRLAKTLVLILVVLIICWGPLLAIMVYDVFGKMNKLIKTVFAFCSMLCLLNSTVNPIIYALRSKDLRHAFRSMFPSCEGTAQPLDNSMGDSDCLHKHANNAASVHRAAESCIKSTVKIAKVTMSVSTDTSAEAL
# Method: as §1
# H1 (h) = biological target: T8, H1 (h) (Homo sapiens, UniProt P35367); conditions: % of control specific binding
# T8 construct: purchased CEREP
# Method: as §1
# D5 (h) = biological target: T9, D5 (h) (Homo sapiens, UniProt P21918); conditions: % of control specific binding
# T9 construct: purchased CEREP
# Method: as §1
# GAL1 (h) = biological target: T10, GAL1 (h) (Homo sapiens, UniProt P47211); conditions: % of control specific binding
# T10 construct: purchased CEREP
# T10 sequence (P47211 whole entry): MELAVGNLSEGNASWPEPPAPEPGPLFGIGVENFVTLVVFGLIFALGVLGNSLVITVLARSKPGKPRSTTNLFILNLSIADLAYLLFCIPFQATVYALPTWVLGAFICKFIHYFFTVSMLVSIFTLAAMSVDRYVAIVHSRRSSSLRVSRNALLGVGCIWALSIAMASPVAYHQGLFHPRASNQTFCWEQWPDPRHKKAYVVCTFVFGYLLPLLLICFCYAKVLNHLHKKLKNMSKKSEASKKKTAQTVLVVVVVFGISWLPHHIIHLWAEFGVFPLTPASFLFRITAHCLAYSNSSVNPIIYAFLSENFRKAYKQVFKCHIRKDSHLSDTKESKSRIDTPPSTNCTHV
# Method: as §1
# M3 (h) = biological target: T11, M3 (h) (Homo sapiens, UniProt P20309); conditions: % of control specific binding
# T11 construct: purchased CEREP
# Method: as §1
# P2X = conditions: % of control specific binding
# Method: as §1
# NT1 (h) (NTS1) = biological target: T12, NT1 (h) (NTS1) (Homo sapiens, UniProt P30989); conditions: % of control specific binding
# T12 construct: purchased CEREP
# T12 sequence (P30989 whole entry): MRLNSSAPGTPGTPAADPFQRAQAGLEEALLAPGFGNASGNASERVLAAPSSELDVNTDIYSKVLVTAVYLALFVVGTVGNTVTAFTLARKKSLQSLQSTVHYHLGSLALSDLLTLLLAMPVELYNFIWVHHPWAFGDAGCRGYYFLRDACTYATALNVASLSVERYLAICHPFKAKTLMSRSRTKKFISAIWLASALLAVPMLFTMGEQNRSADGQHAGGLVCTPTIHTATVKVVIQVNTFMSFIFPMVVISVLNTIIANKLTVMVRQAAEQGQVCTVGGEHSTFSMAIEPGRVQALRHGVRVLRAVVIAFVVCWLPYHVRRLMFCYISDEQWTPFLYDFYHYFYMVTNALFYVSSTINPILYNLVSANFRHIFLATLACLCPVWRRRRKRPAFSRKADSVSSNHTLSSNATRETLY
# Method: as §1
# A2A (h) = biological target: T13, A2A (h) (Homo sapiens, UniProt P29274)
# T13 construct: purchased CEREP
# T13 sequence (P29274 whole entry): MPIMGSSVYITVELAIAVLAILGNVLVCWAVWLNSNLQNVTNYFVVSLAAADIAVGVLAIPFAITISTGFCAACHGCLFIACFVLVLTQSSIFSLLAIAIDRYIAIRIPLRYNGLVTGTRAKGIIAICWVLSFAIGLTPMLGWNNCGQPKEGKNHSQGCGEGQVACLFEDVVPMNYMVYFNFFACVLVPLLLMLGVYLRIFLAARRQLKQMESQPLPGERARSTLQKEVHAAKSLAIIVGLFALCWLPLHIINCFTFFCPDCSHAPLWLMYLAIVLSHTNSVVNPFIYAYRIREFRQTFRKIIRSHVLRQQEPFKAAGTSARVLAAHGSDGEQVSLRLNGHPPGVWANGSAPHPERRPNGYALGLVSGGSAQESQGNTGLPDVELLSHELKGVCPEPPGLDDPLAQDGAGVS
# Method: as §1
# CGRP (h) = biological target: T14, CGRP (h) (Homo sapiens, UniProt O60894+Q16602); conditions: % of control specific binding
# T14 construct: purchased CEREP
# Method: as §1
# D3 (h) = biological target: T15, D3 (h) (Homo sapiens, UniProt P35462); conditions: % of control specific binding
# T15 construct: purchased CEREP
# T15 sequence (P35462 whole entry): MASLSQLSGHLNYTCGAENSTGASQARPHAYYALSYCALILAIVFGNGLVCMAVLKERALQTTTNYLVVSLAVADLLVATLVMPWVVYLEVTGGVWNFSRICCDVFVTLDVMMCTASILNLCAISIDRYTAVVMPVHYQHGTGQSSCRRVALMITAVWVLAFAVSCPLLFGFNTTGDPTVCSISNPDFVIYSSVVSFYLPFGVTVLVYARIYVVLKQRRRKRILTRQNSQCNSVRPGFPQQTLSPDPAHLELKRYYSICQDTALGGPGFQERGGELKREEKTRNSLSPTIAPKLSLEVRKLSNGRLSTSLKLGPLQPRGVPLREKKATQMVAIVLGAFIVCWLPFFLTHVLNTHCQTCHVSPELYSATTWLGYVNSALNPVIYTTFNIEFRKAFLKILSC
# Method: as §1
# CCKB (h) (CCK2) = biological target: T16, CCKB (h) (CCK2) (Homo sapiens, UniProt P32239); conditions: % of control specific binding
# T16 construct: purchased CEREP
# Method: as §1
# sigma (non-selective) = conditions: % of control specific binding
# Method: as §1
# 5-HT6 (h) = biological target: T17, 5-HT6 (h) (Homo sapiens, UniProt P50406); conditions: % of control specific binding
# T17 construct: purchased CEREP
# Method: as §1
# 5-HT1B = biological target: T18, 5-HT1B (Rattus norvegicus, UniProt P28564); conditions: % of control specific binding
# T18 construct: purchased CEREP
# T18 sequence (P28564 whole entry): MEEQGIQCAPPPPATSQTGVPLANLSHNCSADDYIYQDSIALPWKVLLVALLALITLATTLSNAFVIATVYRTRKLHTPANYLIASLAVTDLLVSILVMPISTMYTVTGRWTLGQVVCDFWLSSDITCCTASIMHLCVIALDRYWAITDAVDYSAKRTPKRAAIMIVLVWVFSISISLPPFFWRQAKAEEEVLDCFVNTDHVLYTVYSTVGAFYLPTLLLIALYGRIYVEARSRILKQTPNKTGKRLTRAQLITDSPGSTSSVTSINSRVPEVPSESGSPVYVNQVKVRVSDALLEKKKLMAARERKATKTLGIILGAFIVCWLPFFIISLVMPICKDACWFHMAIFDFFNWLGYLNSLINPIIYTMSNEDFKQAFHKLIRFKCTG
# Method: as §1
# CCKA (h) (CCK1) = biological target: T19, CCKA (h) (CCK1) (Homo sapiens, UniProt P32238); conditions: % of control specific binding
# T19 construct: purchased CEREP
# Method: as §1
# TXA2/PGH2 (h) (TP) = biological target: T20, TXA2/PGH2 (h) (TP) (Homo sapiens, UniProt P21731); conditions: % of control specific binding
# T20 construct: purchased CEREP
# T20 sequence (P21731 whole entry): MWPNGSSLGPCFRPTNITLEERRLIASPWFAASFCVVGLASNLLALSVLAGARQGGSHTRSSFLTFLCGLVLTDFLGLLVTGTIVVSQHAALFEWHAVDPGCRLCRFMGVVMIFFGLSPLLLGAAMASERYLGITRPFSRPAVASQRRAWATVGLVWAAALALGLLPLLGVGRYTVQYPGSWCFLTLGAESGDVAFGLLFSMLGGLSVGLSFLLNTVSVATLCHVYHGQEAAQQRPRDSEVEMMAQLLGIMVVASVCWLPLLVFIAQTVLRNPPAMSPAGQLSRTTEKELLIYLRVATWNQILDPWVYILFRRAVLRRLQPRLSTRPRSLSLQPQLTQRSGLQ
# Method: as §1
# CXCR2 (h) (IL-8B) = biological target: T21, CXCR2 (h) (IL-8B) (Homo sapiens, UniProt P25025); conditions: % of control specific binding
# T21 construct: purchased CEREP
# Method: as §1
# MT2 (h) (agonist site) = biological target: T22, MT2 (h) (agonist site) (Homo sapiens, UniProt P49286); conditions: % of control specific binding
# T22 construct: purchased CEREP
# Method: as §1
# delta 2 (h) (DOP) = biological target: T23, delta 2 (h) (DOP) (Homo sapiens, UniProt P41143); conditions: % of control specific binding
# T23 construct: purchased CEREP
# Method: as §1
# ETB (h) = biological target: T24, ETB (h) (Homo sapiens, UniProt P24530); conditions: % of control specific binding
# T24 construct: purchased CEREP
# Method: as §1
# P2Y = test system: P2Y
# Method: as §1
# D4.4 (h) = biological target: T25, D4.4 (h) (Homo sapiens, UniProt P21917); conditions: % of control specific binding
# T25 construct: purchased CEREP
# Method: as §1
# MC4 (h) = biological target: T26, MC4 (h) (Homo sapiens, UniProt P32245); conditions: % of control specific binding
# T26 construct: purchased CEREP
# Method: as §1
# ML2 (MT3) = test system: ML2 (MT3)
# Method: as §1
# M2 (h) = biological target: T27, M2 (h) (Homo sapiens, UniProt P08172); conditions: % of control specific binding
# T27 construct: purchased CEREP
# Method: as §1
# kappa (KOP) (guinea-pig) = biological target: T28, kappa (KOP) (guinea-pig) (Cavia porcellus, UniProt P41144); conditions: % of control specific binding
# T28 construct: purchased CEREP
# Method: as §1
# ORL1 (h) (NOP) = biological target: T29, ORL1 (h) (NOP) (Homo sapiens, UniProt P41146); conditions: % of control specific binding
# T29 construct: purchased CEREP
# Method: as §1
# A3 (h) = biological target: T30, A3 (h) (Homo sapiens, UniProt P0DMS8)
# T30 construct: purchased CEREP
# T30 sequence (P0DMS8 whole entry): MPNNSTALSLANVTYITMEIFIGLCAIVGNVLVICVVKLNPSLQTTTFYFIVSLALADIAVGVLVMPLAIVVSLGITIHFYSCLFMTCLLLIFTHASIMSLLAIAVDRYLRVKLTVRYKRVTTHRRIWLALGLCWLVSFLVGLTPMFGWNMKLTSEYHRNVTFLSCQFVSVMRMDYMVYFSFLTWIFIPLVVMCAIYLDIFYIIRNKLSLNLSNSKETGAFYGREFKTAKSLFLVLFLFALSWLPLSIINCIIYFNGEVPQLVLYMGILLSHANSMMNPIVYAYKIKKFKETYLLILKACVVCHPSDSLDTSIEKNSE
# Method: as §1
# D2S (h) = biological target: T31, D2S (h) (Homo sapiens, UniProt P14416); conditions: % of control specific binding
# T31 construct: purchased CEREP
# T31 sequence (P14416 1-414 isoform P14416-2): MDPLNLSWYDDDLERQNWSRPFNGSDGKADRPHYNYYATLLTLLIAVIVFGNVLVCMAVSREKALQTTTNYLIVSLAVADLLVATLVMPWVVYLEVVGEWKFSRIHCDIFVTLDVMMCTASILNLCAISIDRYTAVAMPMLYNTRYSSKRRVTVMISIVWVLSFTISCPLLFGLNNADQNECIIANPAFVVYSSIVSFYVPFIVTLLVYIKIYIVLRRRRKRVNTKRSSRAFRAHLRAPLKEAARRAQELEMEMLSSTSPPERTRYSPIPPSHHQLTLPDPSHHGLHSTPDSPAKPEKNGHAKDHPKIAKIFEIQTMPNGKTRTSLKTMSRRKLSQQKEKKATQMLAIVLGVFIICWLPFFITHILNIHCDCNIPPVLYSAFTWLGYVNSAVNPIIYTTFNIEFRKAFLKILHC
# Method: as §1
# BZD (central) = conditions: % of control specific binding
# Method: as §1
# K+V channel = conditions: % of control specific binding
# Method: as §1
# AT2 (h) = biological target: T32, AT2 (h) (Homo sapiens, UniProt P50052); conditions: % of control specific binding
# T32 construct: purchased CEREP
# Method: as §1
# 5-HT7 (h) = biological target: T33, 5-HT7 (h) (Homo sapiens, UniProt P34969); conditions: % of control specific binding
# T33 construct: purchased CEREP
# Method: as §1
# BZD (peripheral) = biological target: T34, BZD (peripheral) (Rattus norvegicus, UniProt P16257); conditions: % of control specific binding
# T34 construct: purchased CEREP
# Method: as §1
smiles,measurement,setting,value
"Cc1nc2ccc(NC(=O)Nc3ccnc4cccnc34)cc2o1.Cl [SB-334867, 1-(2-methylbenzoxazol-6-yl)-3-[1], [5]naphthyridin-4-yl-urea hydrochloride]",% Control (10 µM) Mean SB,NK2 (h),96%
same,% Control (10 µM) Mean SB,5-HT transporter (h),110.7%
same,% Control (10 µM) Mean SB,AT1 (h),102.3%
same,% Control (10 µM) Mean SB,5-HT1A (h),106.6%
same,% Control (10 µM) Mean SB,NK1 (h),104.4%
same,% Control (10 µM) Mean SB,[1],92.3%
same,% Control (10 µM) Mean SB,TRH1 (h),118.5%
same,% Control (10 µM) Mean SB,CB1 (h),104.1%
same,% Control (10 µM) Mean SB,H1 (h),100.3%
same,% Control (10 µM) Mean SB,D5 (h),118.6%
same,% Control (10 µM) Mean SB,GAL1 (h),118.5%
same,% Control (10 µM) Mean SB,M3 (h),73.1%
same,% Control (10 µM) Mean SB,P2X,94.9%
same,% Control (10 µM) Mean SB,NT1 (h) (NTS1),106.9%
same,displacement of specific binding,"A2A (h); 10 µM, A2A (adenosine)",89%
same,% Control (10 µM) Mean SB,A2A (h); % of control specific binding,10.6%
same,% Control (10 µM) Mean SB,CGRP (h),103.6%
same,% Control (10 µM) Mean SB,D3 (h),97.1%
same,% Control (10 µM) Mean SB,CCKB (h) (CCK2),135.1%
same,% Control (10 µM) Mean SB,sigma (non-selective),98.6%
same,% Control (10 µM) Mean SB,5-HT6 (h),102.9%
same,% Control (10 µM) Mean SB,5-HT1B,85.9%
same,% Control (10 µM) Mean SB,CCKA (h) (CCK1),108.8%
same,% Control (10 µM) Mean SB,TXA2/PGH2 (h) (TP),98.8%
same,% Control (10 µM) Mean SB,CXCR2 (h) (IL-8B),110.5%
same,% Control (10 µM) Mean SB,MT2 (h) (agonist site),98.6%
same,% Control (10 µM) Mean SB,delta 2 (h) (DOP),86.1%
same,% Control (10 µM) Mean SB,ETB (h),96.5%
same,displacement of specific binding,"P2Y; 10 µM, P2Y (purinergic 2Y)",64%
same,% Control (10 µM) Mean SB,P2Y; % of control specific binding,36.4%
same,% Control (10 µM) Mean SB,D4.4 (h),95.9%
same,% Control (10 µM) Mean SB,MC4 (h),97.9%
same,displacement of specific binding,"ML2 (MT3); 10 µM, MT3 (melatonin)",102%
same,% Control (10 µM) Mean SB,ML2 (MT3); % of control specific binding,-1.6%
same,% Control (10 µM) Mean SB,M2 (h),87.3%
same,% Control (10 µM) Mean SB,kappa (KOP) (guinea-pig),100.8%
same,% Control (10 µM) Mean SB,ORL1 (h) (NOP),102.9%
same,displacement of specific binding,"A3 (h); 10 µM, A3",63%
same,% Control (10 µM) Mean SB,A3 (h); % of control specific binding,37.5%
same,% Control (10 µM) Mean SB,D2S (h),101.2%
same,% Control (10 µM) Mean SB,BZD (central),89.4%
same,% Control (10 µM) Mean SB,K+V channel,108.1%
same,% Control (10 µM) Mean SB,AT2 (h),114.4%
same,% Control (10 µM) Mean SB,5-HT7 (h),99.9%
same,% Control (10 µM) Mean SB,BZD (peripheral),109.3%

# Reference: article PMC3388080 (PLoS ONE, 2012)
